The results in this text go back to publication PMC4191963, “DNA Binding Properties of the Actin-Related Protein Arp8 and Its Role in DNA Repair” (PLoS ONE, 2014).

Series [1] addresses T1, human Arp8 (Homo sapiens, UniProt Q9H981).
T1 construct: gene ACTR8; full length, N-terminal His6 tag removed with PreScission protease, expressed in E. coli
The series is described as follows: agarose gel shift, loss of dsDNA binding. The conditions noted are these: 1 mM MgCl2, pH 7.5, 37 °C, phiX174 dsDNA. A general note: In EMSA bound probe runs differently from free probe, usually more slowly.

In series [2] the target is T2, human Arp8 (Homo sapiens, UniProt Q9H981, E266A).
T2 construct: gene ACTR8; full length, N-terminal His6 tag removed with PreScission protease, expressed in E. coli
T2 sequence (Q9H981 whole entry E266A): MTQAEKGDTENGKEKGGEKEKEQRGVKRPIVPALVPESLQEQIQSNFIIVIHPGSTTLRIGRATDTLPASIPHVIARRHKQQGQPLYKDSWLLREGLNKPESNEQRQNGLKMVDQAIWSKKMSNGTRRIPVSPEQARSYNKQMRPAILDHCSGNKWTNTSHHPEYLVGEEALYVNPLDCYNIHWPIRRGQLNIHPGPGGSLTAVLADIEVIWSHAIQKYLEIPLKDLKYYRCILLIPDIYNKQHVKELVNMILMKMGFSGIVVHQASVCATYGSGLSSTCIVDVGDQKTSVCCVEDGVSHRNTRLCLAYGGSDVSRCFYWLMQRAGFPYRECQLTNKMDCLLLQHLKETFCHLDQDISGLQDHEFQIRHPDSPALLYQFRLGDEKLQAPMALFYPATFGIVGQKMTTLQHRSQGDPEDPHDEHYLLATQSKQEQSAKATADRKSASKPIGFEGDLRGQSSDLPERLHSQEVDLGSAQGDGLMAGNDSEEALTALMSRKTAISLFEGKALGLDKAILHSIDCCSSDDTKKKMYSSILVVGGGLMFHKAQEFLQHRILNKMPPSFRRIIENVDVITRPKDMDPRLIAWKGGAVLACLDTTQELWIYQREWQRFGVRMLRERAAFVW
The series is described as follows: agarose gel shift, loss of dsDNA binding. Conditions: 1 mM ATP, 1 mM MgCl2, pH 7.5, 37 °C, phiX174 circular dsDNA; ATP-binding pocket.

Series [3] has as its target Arp8 (Homo sapiens, UniProt Q9H981 1-624). The series is described as follows: competition EMSA (PAGE); 3 µM each of ssDNA, dsDNA, 3'-overhang; 250 mM NaCl; highest apparent affinity; 20 mM HEPES-NaOH pH 7.5, 160 mM NaCl (250 mM in oligonucleotide competition), 1 mM MgCl2, 1 mM DTT, 0.1 mg/ml BSA, 8% glycerol (not listed for competition), +/- 1 mM ATP or ADP, 37 C 15 min. Conditions: protein: recombinant; tags: His6 (N-terminal) removed by PreScission; single-stranded.

T1 sequence (Q9H981 whole entry): as the sequence (Q9H981 whole entry E266A) above, with A266E counted along it
Chain of Arp8 (Q9H981 whole entry): as the sequence (Q9H981 whole entry E266A) above, with A266E counted along it

`Nc1ncnc2c1ncn2[C@@H]1O[C@H](COP(=O)(O)OP(=O)(O)O)[C@@H](O)[C@H]1O` [ADP]: in series [1] (1 mM ADP), the “agarose gel shift, loss of dsDNA binding” value is “addition of ADP only slightly decreased the binding of Arp8 to dsDNAs”.

For `Nc1ncnc2c1ncn2[C@@H]1O[C@H](COP(=O)(O)OP(=O)(O)OP(=O)(O)O)[C@@H](O)[C@H]1O` [ATP], the “agarose gel shift, loss of dsDNA binding” value is “Addition of ATP to the binding assay mixture significantly decreased the binding of Arp8” in series [1] (1 mM ATP, ATP-binding pocket) and “ATP only partially inhibited the DNA binding activity of the Arp8 E266A mutant” in series [2].

Regarding CCTCGATCCTACCAACCAGATGACGCGCTGCTACGTGCTACCGGAAGTCG (ssDNA) [a3 ssDNA], the binding result in series [3] was “binds”.
